{"source": "patent US20260053811A1", "about": "“METHODS OF TREATING HYPERTENSION IN OBESE SUBJECTS” (Mineralys Therapeutics, Inc., priority 2022, published 2026)", "tested_on": "hypertensive subjects", "assay": "Seated automated office blood pressure (AOBP) in randomized, placebo-controlled, dose-ranging study", "assay_type": "in vivo, human", "details": "100 mg QD; for Mean Automated Office-Measured Systolic Blood Pressure at Wk 8 / Mean Change from Baseline at Week 8 in Automated Office-Measured Systolic Blood Pressure / Automated Office-Measured Diastolic Blood Pressure, Week 8, mean / Change from Baseline at Week 8 in Automated Office-Measured Diastolic Blood Pressure, mean: Part 2", "protocol": "A randomized, double-blinded, placebo-controlled, dose-ranging, multicenter study was conducted to evaluate the effect of orally administered Compound A HBr on blood pressure for the treatment of hypertension in male and female subjects ≥18 years of age.\nThe study consists of two parts. For enrollment into Part 1 of the study, a subject's value of plasma renin activity (PRA) must be ≤1 ng/mL/h based on morning measurement. If the value of PRA >1 ng/mL/h based on morning measurement, then subjects may be eligible to enter Part 2 of the study.\nFor Part 1, 163 enrolled subjects ≥18 years of age were randomized into 6 equal treatment groups (1:1:1:1:1:1) to 12.5 mg BID, 25 mg BID, 12.5 mg QD, 50 mg QD, 100 mg QD, or placebo. After a review of interim clinical data, the 2 lowest dose levels (12.5 mg QD and 12.5 mg BID) were stopped for future randomization due to a lack of consistent meaningful reduction of blood pressure, but the patients randomized to that point remained in the study through completion. Thus, after the review of interim clinical data, subjects were randomized into 4 equal treatment groups (1:1:1:1) to 25 mg BID, 50 mg QD, 100 mg QD, or placebo.\nFor Part 2, 36 enrolled subjects ≥18 years of age were randomized (5:1) to either 100 mg QD Compound A HBr or placebo such that the Compound A HBr treatment group consisted of approximately 30 subjects and the placebo treatment group will consist of approximately 6 subjects.\nSubjects orally administered the assigned study drug (Compound A HBr or placebo) according to the assigned dosing regimen for 8 weeks beginning on Study Day 1. All subjects in Part 1 (regardless of dosing group) received BID dosing to preserve the integrity of the blind; active drug is administered as the morning dose for all QD dose groups. Subjects returned to the research facility or were seen by the clinical investigator or approved home health care professional at the end of Study Weeks 1, 2, 3, 4, 5, 6, 7, and 8 (±2 days) for protocol-defined efficacy and safety assessments and procedures, assessment of adverse events (AEs), and confirmation of compliance with study drug usage. Subjects also completed a telephone visit and blood pressure (BP) check at home approximately 3 days post last dose of study drug. Subjects attended up to 14 full clinic visits, including a pre-Screening visit, a Screening/start of Placebo Run-in visit, a second visit during Placebo Run-in, a clinic visit to initiate the ABPM procedure, a Randomization visit, 8 weekly visits during double-blind treatment, and an end-of-study visit scheduled 4 weeks after the last study treatment for final efficacy and safety assessments.\nAn automated oscillometric sphygmomanometer device was used to measure the subjects' systolic and diastolic blood pressure in office after approximately 5 minutes of rest in the seated position.\nThe primary endpoint is the change in office-measured (mean of last 2 of 5 unattended measurements using an automated oscillometric sphygmomanometer device after approximately 5 minutes of rest in the seated position) systolic blood pressure (SBP) from baseline to the end of Study Week 8.\nSecondary endpoints of this study were: • (a) Change in 24-hour ambulatory blood pressure monitoring (ABPM) parameters (systolic and diastolic) from baseline to the end of Study Week 7. • (b) Change in office-measured SBP from baseline to the end of Study Weeks 1, 2, 3, 4, 5, 6, and 7. • (c) Change in office-measured diastolic blood pressure (DBP) from baseline to the end of Study Weeks 1, 2, 3, 4, 5, 6, 7, and 8. • (d) Proportion of subjects who achieve office-measured BP of ≤130/80 mm Hg by the end of Study Week 8.", "key": {"[1]": {"details": "Part 1, Thiazide Diuretic Use at Baseline No"}, "[2]": {"details": "Part 1, Thiazide Diuretic Use at Baseline Yes"}, "[3]": {"details": "Systolic Blood Pressure Tertile at Baseline High"}, "[4]": {"details": "Systolic Blood Pressure Tertile at Baseline Low"}, "[5]": {"details": "Systolic Blood Pressure Tertile at Baseline Middle"}, "[6]": {"details": "Thiazide Diuretic Use at Baseline No"}, "[7]": {"details": "Thiazide Diuretic Use at Baseline Yes"}}, "data": [{"smiles": "CC(=O)N[C@H]1CC[C@H](NC(=O)CN2CCN(c3nncc(-c4ccc(C)cc4)n3)CC2)CC1", "note": "[Compound A HBr]", "values": [{"measurement": "Mean (SD) Change from Baseline at Week 8 in Automated Office-Measured Diastolic Blood Pressure", "setting": "[1]", "result": "−4.00 (6.33) mmHg"}, {"measurement": "Mean (SD) Change from Baseline at Week 8 in Automated Office-Measured Systolic Blood Pressure", "setting": "[1]", "result": "−9.15 (9.27) mmHg"}, {"measurement": "Automated Office-Measured Diastolic Blood Pressure, Week 8, Mean (SD)", "setting": "[2]", "result": "73.40 (8.98) mmHg"}, {"measurement": "Mean (SD) Automated Office-Measured Systolic Blood Pressure at Wk 8", "setting": "[2]", "result": "128.27 (16.26) mmHg"}, {"measurement": "Mean (SD) Change from Baseline at Week 8 in Automated Office-Measured Diastolic Blood Pressure", "setting": "[2]", "result": "−6.43 (8.79) mmHg"}, {"measurement": "Mean (SD) Change from Baseline at Week 8 in Automated Office-Measured Systolic Blood Pressure", "setting": "[2]", "result": "−17.37 (14.74) mmHg"}, {"measurement": "Mean Automated Office-Measured Systolic Blood Pressure at Wk 8", "setting": "ACEi/ARB No", "result": 131.00, "unit": "mmHg"}, {"measurement": "Mean Change from Baseline at Week 8 in Automated Office-Measured Systolic Blood Pressure", "setting": "ACEi/ARB No", "result": "−4.00", "unit": "mmHg"}, {"measurement": "Mean Automated Office-Measured Systolic Blood Pressure at Wk 8", "setting": "ACEi/ARB Yes", "result": 129.24, "unit": "mmHg"}, {"measurement": "Mean Change from Baseline at Week 8 in Automated Office-Measured Systolic Blood Pressure", "setting": "ACEi/ARB Yes", "result": "−11.45", "unit": "mmHg"}, {"measurement": "Mean Automated Office-Measured Systolic Blood Pressure at Wk 8", "setting": "AHTs 2", "result": 127.84, "unit": "mmHg"}, {"measurement": "Mean Change from Baseline at Week 8 in Automated Office-Measured Systolic Blood Pressure", "setting": "AHTs 2", "result": "−10.37", "unit": "mmHg"}, {"measurement": "Mean Automated Office-Measured Systolic Blood Pressure at Wk 8", "setting": "AHTs ≥3", "result": 131.82, "unit": "mmHg"}, {"measurement": "Mean Change from Baseline at Week 8 in Automated Office-Measured Systolic Blood Pressure", "setting": "AHTs ≥3", "result": "−12.64", "unit": "mmHg"}, {"measurement": "Mean Automated Office-Measured Systolic Blood Pressure at Wk 8", "setting": "Age 65-79 yr", "result": 132.81, "unit": "mmHg"}, {"measurement": "Mean Change from Baseline at Week 8 in Automated Office-Measured Systolic Blood Pressure", "setting": "Age 65-79 yr", "result": "−9.69", "unit": "mmHg"}, {"measurement": "Mean Automated Office-Measured Systolic Blood Pressure at Wk 8", "setting": "Age <65 yr", "result": 120.88, "unit": "mmHg"}, {"measurement": "Mean Change from Baseline at Week 8 in Automated Office-Measured Systolic Blood Pressure", "setting": "Age <65 yr", "result": "−13.06", "unit": "mmHg"}, {"measurement": "Mean Automated Office-Measured Systolic Blood Pressure at Wk 8", "setting": "Age ≥80 yr", "result": 123.00, "unit": "mmHg"}, {"measurement": "Mean Change from Baseline at Week 8 in Automated Office-Measured Systolic Blood Pressure", "setting": "Age ≥80 yr", "result": "−28.00", "unit": "mmHg"}, {"measurement": "Mean Automated Office-Measured Systolic Blood Pressure at Wk 8", "setting": "BMI at baseline 25-30 kg/m^2", "result": 126.80, "unit": "mmHg"}, {"measurement": "Mean Change from Baseline at Week 8 in Automated Office-Measured Systolic Blood Pressure", "setting": "BMI at baseline 25-30 kg/m^2", "result": "−14.60", "unit": "mmHg"}, {"measurement": "Mean Automated Office-Measured Systolic Blood Pressure at Wk 8", "setting": "BMI at baseline <25 kg/m^2", "result": 130.00, "unit": "mmHg"}, {"measurement": "Mean Change from Baseline at Week 8 in Automated Office-Measured Systolic Blood Pressure", "setting": "BMI at baseline <25 kg/m^2", "result": "−6.50", "unit": "mmHg"}, {"measurement": "Mean Automated Office-Measured Systolic Blood Pressure at Wk 8", "setting": "BMI at baseline >30 kg/m^2", "result": 132.08, "unit": "mmHg"}, {"measurement": "Mean Change from Baseline at Week 8 in Automated Office-Measured Systolic Blood Pressure", "setting": "BMI at baseline >30 kg/m^2", "result": "−8.00", "unit": "mmHg"}, {"measurement": "Mean Automated Office-Measured Systolic Blood Pressure at Wk 8", "setting": "Race Black or AA", "result": 125.83, "unit": "mmHg"}, {"measurement": "Mean Change from Baseline at Week 8 in Automated Office-Measured Systolic Blood Pressure", "setting": "Race Black or AA", "result": "−15.83", "unit": "mmHg"}, {"measurement": "Mean Automated Office-Measured Systolic Blood Pressure at Wk 8", "setting": "Race Other", "result": 130.17, "unit": "mmHg"}, {"measurement": "Mean Change from Baseline at Week 8 in Automated Office-Measured Systolic Blood Pressure", "setting": "Race Other", "result": "−10.04", "unit": "mmHg"}, {"measurement": "Mean Automated Office-Measured Systolic Blood Pressure at Wk 8", "setting": "Sex Female", "result": 127.90, "unit": "mmHg"}, {"measurement": "Mean Change from Baseline at Week 8 in Automated Office-Measured Systolic Blood Pressure", "setting": "Sex Female", "result": "−11.15", "unit": "mmHg"}, {"measurement": "Mean Automated Office-Measured Systolic Blood Pressure at Wk 8", "setting": "Sex Male", "result": 132.10, "unit": "mmHg"}, {"measurement": "Mean Change from Baseline at Week 8 in Automated Office-Measured Systolic Blood Pressure", "setting": "Sex Male", "result": "−11.30", "unit": "mmHg"}, {"measurement": "Mean Automated Office-Measured Systolic Blood Pressure at Wk 8", "setting": "[3]", "result": 132.36, "unit": "mmHg"}, {"measurement": "Mean Change from Baseline at Week 8 in Automated Office-Measured Systolic Blood Pressure", "setting": "[3]", "result": "−17.05", "unit": "mmHg"}, {"measurement": "Mean Automated Office-Measured Systolic Blood Pressure at Wk 8", "setting": "[4]", "result": 124.11, "unit": "mmHg"}, {"measurement": "Mean Change from Baseline at Week 8 in Automated Office-Measured Systolic Blood Pressure", "setting": "[4]", "result": "−7.56", "unit": "mmHg"}, {"measurement": "Mean Automated Office-Measured Systolic Blood Pressure at Wk 8", "setting": "[5]", "result": 130.60, "unit": "mmHg"}, {"measurement": "Mean Change from Baseline at Week 8 in Automated Office-Measured Systolic Blood Pressure", "setting": "[5]", "result": "−8.05", "unit": "mmHg"}, {"measurement": "Automated Office-Measured Diastolic Blood Pressure, Week 8, mean", "setting": "[6]", "result": 68.42, "unit": "mmHg"}, {"measurement": "Change from Baseline at Week 8 in Automated Office-Measured Diastolic Blood Pressure, mean", "setting": "[6]", "result": "−8.13", "unit": "mmHg"}, {"measurement": "Mean Automated Office-Measured Systolic Blood Pressure at Wk 8", "setting": "[6]", "result": 125.67, "unit": "mmHg"}, {"measurement": "Mean Change from Baseline at Week 8 in Automated Office-Measured Systolic Blood Pressure", "setting": "[6]", "result": "−12.25", "unit": "mmHg"}, {"measurement": "Automated Office-Measured Diastolic Blood Pressure, Week 8, mean", "setting": "[7]", "result": 74.67, "unit": "mmHg"}, {"measurement": "Change from Baseline at Week 8 in Automated Office-Measured Diastolic Blood Pressure, mean", "setting": "[7]", "result": "−4.06", "unit": "mmHg"}]}]}
